Earlier results as cited in paper PMC3744102 (2010).
“And” between values parts separate entries of the source, which are not always exact repeats. Equal values may be shown once. “Also recorded” adds a separate entry of the source.

For Y-G-G-F-L-R-R-I-R-P-K-L-K-W-D-N-Q, the cleaved bond (rhesus monkey blood) is given as “Arg6-Arg7, major; also recorded: Tyr1-G2, major”, the fragment found (rhesus monkey blood) is given as 2–6 and 8–17 and 9–17 and 11–17 and 3–17 and 4–17 and the cleaved bond (human blood) is given as “Arg6-Arg7, major; also recorded: Tyr1-G2, major”. The fragment found (human blood) was 3–17 and 4–17 and 2–6 and 8–17 and 9–17 and 11–17.
